In brackets after ≈: the same amount, converted by molar mass.
How the values were obtained:
[1] = target: T1, human NK1 receptor (Homo sapiens, UniProt P25103); experiment: NK1 receptor binding, [3H]substance P displacement; conditions: for Ki: read-out: pKi (affinity to the NK-1 receptor) (converted)
T1 construct: expressed in transfected cells; host or cells: CHO cells, Semliki virus expression system; membrane suspension
Description: The affinity of test compounds for the NK1 receptor was evaluated at human NK1 receptors in CHO cells infected with the human NK1 receptor (using the Semliki virus expression system) and radiolabelled with [^3H]substance P (final concentration 0.6 nM). Binding assays were performed in HEPES buffer (50 mM, pH 7.4) containing BSA (0.04%) leupeptin (8 μg/ml), MnCl2 (3 mM) and phosphoramidon (2 μM). Binding assays consisted of 250 μl of membrane suspension (1.25×10^5 cells/assay tube), […] of buffer of displacing agent and 125 μl of [^3H]substance P. Displacement curves were determined with at least seven concentrations of the compound. The assay tubes were incubated for 60 min at room temperature after which time the tube contents were rapidly filtered under vacuum through GF/C filters presoaked for 60 min with PEI (0.3%) with 2×2 ml washes of HEPES buffer (50 mM, pH 7.4). The radioactivity retained on the filters was measured by scintillation counting. All assays were performed in triplicate in at least 2 separate experiments.

[2] = Solubility at pH 6.5 and pH 4.3 (water-solubility); conditions: water (aqueous medium; buffer not named)
[3] = human NK1 receptors in CHO cells, [3H]substance P 0.6 nM

T1 sequence (P25103 whole entry): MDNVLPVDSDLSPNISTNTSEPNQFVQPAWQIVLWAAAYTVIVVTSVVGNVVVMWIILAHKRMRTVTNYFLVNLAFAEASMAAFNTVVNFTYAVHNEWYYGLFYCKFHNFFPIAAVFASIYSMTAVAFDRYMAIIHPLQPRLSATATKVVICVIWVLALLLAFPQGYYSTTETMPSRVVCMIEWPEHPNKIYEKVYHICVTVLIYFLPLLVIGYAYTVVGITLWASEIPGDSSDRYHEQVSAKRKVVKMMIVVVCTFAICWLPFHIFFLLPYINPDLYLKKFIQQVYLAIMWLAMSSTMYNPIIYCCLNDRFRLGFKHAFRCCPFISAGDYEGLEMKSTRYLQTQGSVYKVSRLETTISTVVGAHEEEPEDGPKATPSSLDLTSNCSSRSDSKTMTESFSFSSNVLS

Row | Ki [1, 3] [nM] | solubility ([2]; pH 4.3, aqueous buffer) [µg/mL] | Compound | other results
1 | 3.09 | > 8400 | CN1CCN([C@H]2CCN(C(=O)c3cc(C(F)(F)F)cc(C(F)(F)F)c3)C[C@H]2c2ccccc2)CC1 (racemic) [Example 27, Rac-cis-(3,5-Bis-trifluoromethyl-phenyl)-[4-(4-methyl-piperazin-1-yl)-3-phenyl-piperidin-1-yl]-methanone] | solubility ([2]; pH 6.5, aqueous buffer): 910 µg/mL (≈ 1820 µM)
2 | 2.14 | 1000 (≈ 1870 µM) | O=C(c1cc(C(F)(F)F)cc(C(F)(F)F)c1)N1CCC(N2CCC(O)CC2)C(c2ccc(Cl)cc2)C1 (racemic) [Example 63, Rac-cis-(3,5-Bis-trifluoromethyl-phenyl)-[3′-(4-chloro-phenyl)-4-hydroxy-[1,4′]bipiperidinyl-1′-yl]-methanone] | solubility ([2]; pH 6.5, aqueous buffer): 780 µg/mL (≈ 1460 µM)
3 | – | – | Cc1ccc(C2CN(C(=O)c3cc(C(F)(F)F)cc(C(F)(F)F)c3)CCC2N2CCN(CC3CC3)CC2)cc1 (single isomer, unassigned; (-)) [Example 102, (−)-4-(3,5-Bis-trifluoromethyl-phenyl)-[4-(4-cyclopropylmethyl-piperazin-1-yl)-3-p-tolyl-piperidin-1-yl]-methanone] | pKi (affinity to the NK-1 receptor) [1, 3]: 9.28; Solubility at pH 4.3 (pH 4.3): 5.5 mg/mL; Solubility at pH 6.5 (pH 6.5): 0.43 mg/mL
4 | 2.34 | – | Cc1ccc(C2CN(C(=O)c3cc(C(F)(F)F)cc(C(F)(F)F)c3)CCC2N2CCN(C(=O)N3CCOCC3)CC2)cc1 (single isomer, unassigned; (-)) [Example 104, (−)-(3,5-Bis-trifluoromethyl-phenyl)-{4-[4-(morpholine-4-carbonyl)-piperazin-1-yl]-3-p-tolyl-piperidin-1-yl}-methanone] | –
5 | 3.16 | – | O=C(c1cc(C(F)(F)F)cc(C(F)(F)F)c1)N1CC[C@H](N2CCN(C(=O)C(F)(F)F)CC2)[C@H](c2ccc(Cl)cc2)C1 (racemic) [Example 106, Rac-cis-1-{4-[1-(3,5-Bis-trifluoromethyl-benzoyl)-3-(4-chloro-phenyl)-piperidin-4-yl]-piperazin-1-yl}-2,2,2-trifluoro-ethanone] | –
6 | 0.794 | – | O=C(c1cc(C(F)(F)F)cc(C(F)(F)F)c1)N1CCC(N2CCC(NC3CC3)CC2)C(c2ccc(Cl)cc2)C1 (racemic) [Example 112, Rac-cis-(3,5-Bis-trifluoromethyl-phenyl)-[3′-(4-chloro-phenyl)-4-cydopropylamino-[1,4′]bipiperidinyl-1′-yl]-methanone] | –
7 | 1.26 | > 7500 | O=C(c1cc(C(F)(F)F)cc(C(F)(F)F)c1)N1CC[C@H](N2CCN(CC3CC3)CC2)[C@H](c2ccccc2)C1 (racemic) [Example 36, Rac-cis-(3,5-Bis-trifluoromethyl-phenyl)-[4-(4-cyclopropylmethyl-piperazin-1-yl)-3-phenyl-piperidin-1-yl]-methanone] | –
8 | 2.09 | – | O=C(c1cc(C(F)(F)F)cc(C(F)(F)F)c1)N1CC[C@H](N2CCNCC2)[C@H](c2ccc(F)cc2)C1 (racemic) [Example 82, Rac-cis-(3,5-Bis-trifluoromethyl-phenyl)-[3-(4-fluoro-phenyl)-4-piperazin-1-yl-piperidin-1-yl]-methanone] | –
9 | – | > 3500 | O=C(c1cc(C(F)(F)F)cc(C(F)(F)F)c1)N1CC[C@H](N2CCNCC2)[C@H](c2ccccc2)C1 (racemic) [Example 34, Rac-cis-(3,5-Bis-trifluoromethyl-phenyl)-(3-phenyl-4-piperazin-1-yl-piperidin-1-yl)-methanone] | –
10 | 1.78 | – | NC1CCN(C2CCN(C(=O)c3cc(C(F)(F)F)cc(C(F)(F)F)c3)CC2c2ccc(F)cc2)C1 (mixture of isomers) [Example 118, (3RS,3′RS,4SR)- and (3RS,3′SR,4SR)-[4-(3-Amino-pyrrolidin-1-yl)-3-(4-fluoro-phenyl)-piperidin-1-yl]-(3,5-bis-trifluoromethyl-phenyl)-methanone] | –
11 | 1 | – | O=C(c1cc(C(F)(F)F)cc(C(F)(F)F)c1)N1CC[C@@H](N2CCN(C3CC3)CC2)[C@@H](c2ccccc2)C1 (single isomer, unassigned) [Example 119, (−)-(3,5-Bis-trifluoromethyl-phenyl)-[4-(4-cyclopropyl-piperazin-1-yl)-3-phenyl-piperidin-1-yl]-methanone] | –
12 | 1.29 | – | O=C(c1cc(C(F)(F)F)cc(C(F)(F)F)c1)N1CC[C@@H](N2CCN(C(=O)C(F)(F)F)CC2)[C@@H](c2ccc(Cl)cc2)C1 (single isomer, unassigned) [Example 108, (−)-1-{4-[1-(3,5-Bis-trifluoromethyl-benzoyl)-3-(4-chloro-phenyl)-piperidin-4-yl]-piperazin-1-yl}-2,2,2-trifluoro-ethanone] | relative activity of enantiomer in the test for NK-1 binding ([1]; enantiomer fraction from Chiralpak AD separation of the racemate): more active enantiomer
13 | 1.62 | – | O=C(c1cc(C(F)(F)F)cc(C(F)(F)F)c1)N1CCC(N2CCC(N3CCOCC3)CC2)C(c2ccc(Cl)cc2)C1 (racemic) [Example 109, Rac-cis-(3,5-Bis-trifluoromethyl-phenyl)-[3′-(4-chloro-phenyl)-4-morpholin-4-yl-[1,4′]bipiperidinyl-1′-yl]-methanone] | –
14 | 0.631 | – | CN(C)C1CCN(C2CCN(C(=O)c3cc(C(F)(F)F)cc(C(F)(F)F)c3)CC2c2ccc(Cl)cc2)CC1 (racemic) [Example 107, Rac-cis-(3,5-bis-trifluoromethyl-phenyl)-[3′-(4-chloro-phenyl)-4-dimethylamino-[1,4′]bipiperidinyl-1′-yl]-methanone] | –
15 | 0.363 | – | O=C(c1cc(C(F)(F)F)cc(C(F)(F)F)c1)N1CCC(N2CCN(CC3CC3)CC2)C(c2ccc(Cl)cc2)C1 (single isomer, unassigned; (-)) [Example 113, (−)-(3,5-Bis-trifluoromethyl-phenyl)-[3-(4-chloro-phenyl)-4-(4-cyclopropylmethyl-piperazin-1-yl)-piperidin-1-yl]-methanone] | –
16 | – | 2400 (≈ 4640 µM) | CN1CCN([C@H]2CCN(C(=O)c3cc(C(F)(F)F)cc(C(F)(F)F)c3)C[C@H]2c2ccc(F)cc2)CC1 (racemic) [Example 45, Rac-cis-(3,5-Bis-trifluoromethyl-phenyl)-[3-(4-fluoro-phenyl)-4-(4-methyl-piperazin-1-yl)-piperidin-1-yl]-methanone] | solubility ([2]; pH 6.5, aqueous buffer): 1000 µg/mL (≈ 1930 µM)

— patent US6642226B2, “Substituted phenyl-piperidine methanone compounds” (Hoffman-La Roche Inc., priority 2001, dated 2003)
